Test results: patent US20050065203A1, “Method of reducing type 2 diabetes in high risk patients” (priority 2001, published 2005)
Like-named read-outs stand apart in the source and are kept apart here.

Tests used:
[1] = system: patients without known diabetes but with vascular disease; assay: Heart Outcomes Prevention Evaluation (HOPE) trial: new diagnosis of diabetes; type: in vivo, human; details: for New Diabetes With Glycated Hemoglobulin ≧ 110%, ULN, RR (85%) CI) / New Diabetes With Oral Agents or Insulin, RR (85%) CI) / New Diabetes With Oral Agents or insulin and Glycated Hemoglobulin ≧ 110%, ULN, RR (85%) CI) / New Diabetes, RR (85%) CI): vs placebo
Experimental: The design of the Heart Outcomes Prevention Evaluation (HOPE) trial has been described in detail in previous publications. Briefly, individuals who were 55 years or older with no evidence of left ventricular dysfunction or heart failure and who had evidence of vascular disease or who had diabetes and one other risk factor were eligible as long as they had no indication or contraindication to receiving an ACE-inhibitor. The study was conducted in 26 hospitals in 19 countries from 1994 to 1999. All patients provided written informed consent.
Of 10576 eligible patients who participated in a run-in period during which they received 2.5 mg ramipril once daily for 1 week followed by matching placebo for 10 to 14 days, 1035 (9.8%) were excluded from randomization (3.2% for side effects, 3.7% for lack of consent). […] In the following it is primarily foccuessed on the latter group of patients. Of these patients, 5720 were randomized to receive up to 10 mg of ramipril once per day or equivalent placebo. One hundred sixty-seven patients who were randomized to receive a low dose (2.5 mg/day) of ramipril as part of the Study to Evaluate Carotid Ultrasound changes with Ramipril and Vitamin E (SECURE). Substudy results are not included. All randomized patients were also randomized to receive 400 IU of Vitamin E or placebo.
Follow-up visits occurred at 1 month and 6 months after randomization and then every 6 months (mean follow-up of 4.5 years). At each visit, it was documented whether the diagnosis of diabetes had been made since the last visit.
The primary outcome of this analysis is a new diagnosis of diabetes recorded on the basis of self-report. […] Hemoglobin A1c (HbA1c) levels and medications used among those diagnosed as having diabetes were also recorded. The HbA1c levels; were determined locally. Values higher than 110% of the upper limit of normal for each laboratory were considered to be biochemical confirmation of diabetes.
Survival curves utilizing the Kaplan Meier and log-rank procedures were used to describe and compare the results in the 2 treatment groups. Because of the factorial design, all analyses were stratified for randomization to vitamin E or placebo. Subgroup analyses were conducted using tests of interaction in the Cox regression model.
Design, Setting and Participants: The randomized, controlled Heart Outcomes Prevention Evaluation trial of 5720 patients older than 55 years without known diabetes but with vascular disease who were followed up for a mean of 4.5 years. The study included 267 hospitals in 19 countries and was conducted between 1994 and 1999.
Intervention: Patients were randomly assigned to receive ramipril, up to 10 mg/d (n=2837), or placebo (n=2883).
Main Outcome Measure: Diagnosis of diabetes determined from self-report at follow-up visits every 6 months, compared between the 2 groups.

[2] = system: patients without known diabetes but with vascular disease; details: study participants without known diabetes at randomization (N Engl J. Med. 2000); cited from earlier work
[3] = SECURE study, P=0.03, cited from earlier work
[4] = patients with diabetes in HOPE, serial annual recordings, first 2 years; cited from earlier work
[5] = system: people at high risk, with and without a diagnosis of diabetes; details: cited from earlier work
[6] = ramipril up to 10 mg/d (n=2837), mean follow-up 4.5 years
[7] = subgroup Body mass index >27.7 Kg/m^2
[8] = subgroup Without microalbuminuria

Q: Which results are given for CCOC(=O)[C@H](CCc1ccccc1)N[C@@H](C)C(=O)N1[C@H](C(=O)O)C[C@@H]2CCC[C@@H]21 [ramipril]?
A: New Diabetes With Glycated Hemoglobulin ≧ 110%, ULN, No. of patients ([1]; No new MA or ON): 42; New Diabetes With Glycated Hemoglobulin ≧ 110%, ULN, proportion of patients (in parentheses) ([1]; No new MA or ON): 1.7; New Diabetes With Oral Agents or Insulin, No. of patients ([1]; No new MA or ON): 45; New Diabetes With Oral Agents or Insulin, proportion of patients (in parentheses) ([1]; No new MA or ON): 1.8; New Diabetes With Oral Agents or insulin and Glycated Hemoglobulin ≧ 110%, ULN, No. of patients ([1]; No new MA or ON): 30; New Diabetes With Oral Agents or insulin and Glycated Hemoglobulin ≧ 110%, ULN, proportion of patients (in parentheses) ([1]; No new MA or ON): 1.2; New Diabetes, No. of patients ([1]; No new MA or ON): 82; New Diabetes, proportion of patients (in parentheses) ([1]; No new MA or ON): 3.3; New Diabetes With Glycated Hemoglobulin ≧ 110%, ULN, RR (85%) CI) ([1]; No new MA or ON): 0.66 (0.48-0.98); New Diabetes With Oral Agents or Insulin, RR (85%) CI) ([1]; No new MA or ON): 0.56 (0.39-0.81); New Diabetes With Oral Agents or insulin and Glycated Hemoglobulin ≧ 110%, ULN, RR (85%) CI) ([1]; No new MA or ON): 0.60 (0.38-0.94); New Diabetes, RR (85%) CI) ([1]; No new MA or ON): 0.67 (0.51-0.89); New Diabetes With Glycated Hemoglobulin ≧ 110%, ULN, No. of patients ([1]; No primary event): 45; New Diabetes With Glycated Hemoglobulin ≧ 110%, ULN, proportion of patients (in parentheses) ([1]; No primary event): 1.8; New Diabetes With Oral Agents or Insulin, No. of patients ([1]; No primary event): 54; New Diabetes With Oral Agents or Insulin, proportion of patients (in parentheses) ([1]; No primary event): 2.2; New Diabetes With Oral Agents or insulin and Glycated Hemoglobulin ≧ 110%, ULN, No. of patients ([1]; No primary event): 32; New Diabetes With Oral Agents or insulin and Glycated Hemoglobulin ≧ 110%, ULN, proportion of patients (in parentheses) ([1]; No primary event): 1.3; New Diabetes, No. of patients ([1]; No primary event): 93; New Diabetes, proportion of patients (in parentheses) ([1]; No primary event): 3.8; New Diabetes With Oral Agents or Insulin, RR (85%) CI) ([1]; No primary event): 0.58 (0.42-0.82); New Diabetes With Oral Agents or insulin and Glycated Hemoglobulin ≧ 110%, ULN, RR (85%) CI) ([1]; No primary event): 0.51 (0.33-0.78); New Diabetes, RR (85%) CI) ([1]; No primary event): 0.69 (0.53-0.91); New Diabetes With Glycated Hemoglobulin ≧ 110%, ULN, No. of patients ([1]; With new MA or ON): 10; New Diabetes With Glycated Hemoglobulin ≧ 110%, ULN, proportion of patients (in parentheses) ([1]; With new MA or ON): 2.8; New Diabetes With Oral Agents or insulin and Glycated Hemoglobulin ≧ 110%, ULN, No. of patients ([1]; With new MA or ON): 6; New Diabetes With Oral Agents or insulin and Glycated Hemoglobulin ≧ 110%, ULN, proportion of patients (in parentheses) ([1]; With new MA or ON): 1.7; New Diabetes, No. of patients ([1]; With new MA or ON): 20; New Diabetes, proportion of patients (in parentheses) ([1]; With new MA or ON): 5.8; New Diabetes With Glycated Hemoglobulin ≧ 110%, ULN, RR (85%) CI) ([1]; With new MA or ON): 0.47 (0.23-0.98); New Diabetes With Oral Agents or insulin and Glycated Hemoglobulin ≧ 110%, ULN, RR (85%) CI) ([1]; With new MA or ON): 0.32 (0.13-0.79); New Diabetes, RR (85%) CI) ([1]; With new MA or ON): 0.65 (0.38-1.12); New Diabetes With Oral Agents or Insulin, No. of patients ([1]; With new NA or ON): 14; New Diabetes With Oral Agents or Insulin, proportion of patients (in parentheses) ([1]; With new NA or ON): 3.9; New Diabetes With Oral Agents or Insulin, RR (85%) CI) ([1]; With new NA or ON): 0.61 (0.32-1.16); New Diabetes With Glycated Hemoglobulin ≧ 110%, ULN, No. of patients ([1]; With primary event): 7; New Diabetes With Glycated Hemoglobulin ≧ 110%, ULN, proportion of patients (in parentheses) ([1]; With primary event): 1.9; New Diabetes With Oral Agents or Insulin, No. of patients ([1]; With primary event): 5; New Diabetes With Oral Agents or Insulin, proportion of patients (in parentheses) ([1]; With primary event): 1.3; New Diabetes With Oral Agents or insulin and Glycated Hemoglobulin ≧ 110%, ULN, No. of patients ([1]; With primary event): 4; New Diabetes With Oral Agents or insulin and Glycated Hemoglobulin ≧ 110%, ULN, proportion of patients (in parentheses) ([1]; With primary event): 1.1; New Diabetes, No. of patients ([1]; With primary event): 9; New Diabetes, proportion of patients (in parentheses) ([1]; With primary event): 2.4; New Diabetes With Glycated Hemoglobulin ≧ 110%, ULN, RR (85%) CI) ([1]; With primary event): 0.59 (0.24-1.43); New Diabetes With Oral Agents or Insulin, RR (85%) CI) ([1]; With primary event): 0.42 (0.15-1.14); New Diabetes With Oral Agents or insulin and Glycated Hemoglobulin ≧ 110%, ULN, RR (85%) CI) ([1]; With primary event): 0.54 (0.17-1.72); New Diabetes, RR (85%) CI) ([1]; With primary event): 0.48 (0.21-0.98); patients diagnosed to have diabetes and glycated hemoglobin of 110% or more above upper limit of normal, % ([1]; ramipril group): 1.8%; patients with new diabetes meeting all criteria, % ([1]; ramipril group): 1.3%; patients with new diabetes receiving an oral glucose lowering agent or insulin, % ([1]; ramipril group): 2.1%; individuals who reported a new diagnosis of diabetes, % [1, 6]: 3.6%; individuals who reported a new diagnosis of diabetes, No. [1, 6]: 102 and One hundred and two; relative risk of diabetes diagnosis with glycated hemoglobin of 110% or more of ULN ([1]; ramipril vs placebo): 0.60; relative risk of new diabetes meeting all criteria ([1]; ramipril vs placebo): 0.51; relative risk of new diabetes with oral glucose lowering agent or insulin ([1]; ramipril vs placebo): 0.56; relative risk of new diagnosis of diabetes ([1]; ramipril vs placebo): 0.66; No. With Diabetes ([1]; subgroup): 39; (%) With Diabetes [1, 7]: (5.8) %; No. With Diabetes [1, 7]: 63; (%) With Diabetes ([1]; subgroup Body mass index ≦7.7 Kg/m^2): (2.2) %; (%) With Diabetes ([1]; subgroup Not taking diuretics): (3.4) %; No. With Diabetes ([1]; subgroup Not taking diuretics): 84; (%) With Diabetes ([1]; subgroup Not taking β-blocker): (3.3) %; No. With Diabetes ([1]; subgroup Not taking β-blocker): 50; (%) With Diabetes ([1]; subgroup Taking diuretics): (5.0) %; No. With Diabetes ([1]; subgroup Taking diuretics): 18; (%) With Diabetes ([1]; subgroup Taking β-blocker): (4.0) %; No. With Diabetes ([1]; subgroup Taking β-blocker): 52; (%) With Diabetes ([1]; subgroup Waist-hip ratio >0.93): (4.4) %; No. With Diabetes ([1]; subgroup Waist-hip ratio >0.93): 63; (%) With Diabetes ([1]; subgroup Waist-hip ratio ≦0.93): (2.8) %; No. With Diabetes ([1]; subgroup Waist-hip ratio ≦0.93): 39; (%) With Diabetes ([1]; subgroup With hypertension): (4.2) %; No. With Diabetes ([1]; subgroup With hypertension): 49; (%) With Diabetes ([1]; subgroup With microalbuminuria): (4.2) %; No. With Diabetes ([1]; subgroup With microalbuminuria): 17; (%) With Diabetes ([1]; subgroup Without hypertension): (3.2) %; No. With Diabetes ([1]; subgroup Without hypertension): 53; (%) With Diabetes [1, 8]: (3.5) %; No. With Diabetes [1, 8]: 85; relative risk for diabetes ([1]; subgroup who never took diuretics or β-blockers during the study, ramipril vs placebo): 0.62; development of diabetes [2]: reduced; increase in fasting glucose ([3]; placebo 0.41 mmols): 0.25 mmols; increase in fasting glucose ([3]; placebo 15.8 mg/dL): 9.6 mg/dL; reduction in HbA10 levels, absolute difference [4]: 0.2%; myocardial infarction, strokes, death, and the development of diabetic nephropathy [5]: reduces

Q: With Vitamin E as the molecule, how does the effect on diabetes ([1]; 400 IU Vitamin E vs placebo) read?
A: The effect on diabetes was “did not differ”.
